Laboratory results reported in patent US11718618B2, “Substituted pyrido[2,1-a]isoquinolines as VMAT2 inhibitors” (priority 2021, dated 2023).
Where two headings read alike, the source gives them in different places.

Tests used:
[1] = Stability of compounds in human liver microsomes; type: in vitro ADME; conditions: for CLint scaled at 0.5 μM / half-life at 0.5 μM: both sexes, pH 7.4; for CLint scaled at 0.5 μM: liver microsomes, calculated from HLM half-life, read-out: HLM Scaled Intrinsic Clearance; for CLint scaled at 0.5 μM / Predicted Max. Bioavailability (% F) / HLM Predicted Systemic Clearance: human; for half-life at 0.5 μM: 0.5 μM compound, 0.5 mg/mL human liver microsomes, 37° C., maxed at 420 minutes, read-out: HLM Elimination half-life (t1/2, min); for Predicted Max. Bioavailability (% F): predicted from HLM data; for HLM Predicted Systemic Clearance: scaled from HLM half-life (Obach method)
Method: A test compound (0.5 μM) was incubated with pooled mixed gender liver microsomes from humans (0.5 mg/mL total protein) at 37° C. in the presence of an NADPH-generating system containing 50 mM, pH 7.4 potassium phosphate buffer, 3 mM magnesium chloride, 1 mM EDTA, 1 mM NADP, 5 mM glusose-6-phosphate, and 1 Unit/mL glucose-6-phosphate dehydrogenase. All concentrations were relative to the final incubation volume of 125 μL. Incubations were conducted at 37° C. for 0, 5, 10, 20, 40, and 60 minutes in a water bath and terminated by rapid mixing with 150 μL of ice-cold acetonitrile containing internal standard. Precipitated proteins were removed by centrifugation prior to LC-MS/MS analysis. Aliquots of the resulting supernatant fractions were analyzed by LC-MS/MS monitoring for depletion of parent compound. The resultant peak area ratio versus time data was fitted to a non-linear regression using XLfit Scientific Curve Fitting Software (IDBS Ltd., Surrey, UK) and the elimination half-life (t1/2, min) was calculated from the slope. […] Additional values calculated included predicted extraction ratio and predicted maximum bioavailability.

human VMAT2 = human VMAT2 (Homo sapiens (Human), UniProt Q05940); assay: VMAT2 radioligand binding, 3H-dihydrotetrabenazine competition on human platelet homogenate
Method: Examples of techniques for determining the capability of a compound to inhibit VMAT2 are provided below. The procedure was adapted from that described previously (see, e.g., Near, (1986), Mol. Pharmacol. 30: 252-57; Teng, et al., J. Neurochem. 71, 258-65, 1998). Homogenates from human platelets were prepared by homogenization and then washed by centrifugation as described previously (see, e.g., Hoare et al., (2003) Peptides 24:1881-97).
The human VMAT2 Ki values for the compounds listed in Table 15A and Table 15B were determined using the following procedures. Compound dilution series in DMSO were generated from either powder stocks by hand, or from DMSO stocks using serial dilution on a Vantage (Hamilton), or direct dilution using an Echo 655 (Beckman). In a total volume of 0.145 to 0.150 mL in low-binding 96-well plates (Corning #3605), twelve concentrations of test compound were competed against 10 nM ^3H-dihydrotetrabenezine (American Radiolabeled Chemicals) on human platelet homogenate (30 μg membrane protein per well) in VMAT2 binding buffer (Dulbecco's phosphate buffered saline, 1 mM EDTA, pH 7.4). Following incubation at 25° C. for 90 minutes, bound radioligand was collected by rapid filtration onto either GF/B or GF/C glass fiber filters, pretreated with 0.100 polyethylenimine, using either a Unifilter-96 Harvester (PerkinElmer) or Microlab Star (Hamilton). Following harvesting the filter plates were washed with 0.8 mL VMAT2 binding buffer, and bound radioligand was quantified by scintillation counting using a Topcount NXT or Microplate Counter Microbeta (PerkinElmer).

[2] = 10 nM 3H-dihydrotetrabenazine, human platelet homogenate, 25° C., 90 minutes, read-out: VMAT2 Ki

human VMAT2, sequence (Q05940 whole entry): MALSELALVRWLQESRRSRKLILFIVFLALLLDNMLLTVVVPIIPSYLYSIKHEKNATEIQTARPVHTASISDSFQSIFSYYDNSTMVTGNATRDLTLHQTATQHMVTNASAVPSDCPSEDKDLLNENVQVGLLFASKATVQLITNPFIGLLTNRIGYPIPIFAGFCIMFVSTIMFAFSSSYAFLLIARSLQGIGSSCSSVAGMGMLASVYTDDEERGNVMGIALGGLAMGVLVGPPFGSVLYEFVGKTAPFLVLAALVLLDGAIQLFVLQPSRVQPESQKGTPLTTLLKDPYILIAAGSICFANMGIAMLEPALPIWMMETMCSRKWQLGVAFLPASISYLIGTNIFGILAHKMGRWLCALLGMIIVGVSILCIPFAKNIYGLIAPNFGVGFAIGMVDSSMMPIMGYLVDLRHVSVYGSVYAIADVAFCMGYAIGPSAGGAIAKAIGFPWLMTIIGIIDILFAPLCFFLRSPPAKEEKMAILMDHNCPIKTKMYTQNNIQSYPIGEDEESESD

| Compound | CLint scaled at 0.5 μM [1] [mL/min/kg] | half-life at 0.5 μM [1] [min] | Predicted Max. Bioavailability (% F) [1] [% F] | HLM Predicted Systemic Clearance [1] [mL/min/kg] | Ki (human VMAT2; [2]) [nM] | Ki (human VMAT2) [nM] |
| --- | --- | --- | --- | --- | --- | --- |
| COc1cc2c(cc1OCCOC1(C#N)CCC1)CCN1C[C@@H](CC(C)(C)C)[C@H](O)C[C@H]21 [Compound 4-23, 1-(2-{[(2R,3R,11bR)-3-(2,2-dimethylpropyl)-2-hydroxy-10-methoxy-1H,2H,3H,4H,6H,7H,11bH-pyrido[2,1-a]isoquinolin-9-yl]oxy}ethoxy)cyclobutane-1-carbonitrile] | 58.5 | 21 | 25 | 14.9 | 0.41 |  |
| COc1cc2c(cc1OCC#N)CCN1C[C@@H](CC(C)(C)C)[C@H](O)C[C@H]21 [Compound 4-24, 2-{[(2R,3R,11bR)-3-(2,2-dimethylpropyl)-2-hydroxy-10-methoxy-1H,2H,3H,4H,6H,7H,11bH-pyrido[2,1-a]isoquinolin-9-yl]oxy}acetonitrile] | 10.7 | 117 | 65 | 6.97 | 35 |  |
| COc1cc2c(cc1OCC1(O)CCC1)CCN1C[C@@H](CC(C)(C)C)[C@H](O)C[C@H]21 [Compound 4-25, (2R,3R,11bR)-3-(2,2-dimethylpropyl)-9-[(1-hydroxycyclobutyl)methoxy]-10-methoxy-1H,2H,3H,4H,6H,7H,11bH-pyrido[2,1-a]isoquinolin-2-ol] | 11.4 | 109 | 64 | 7.26 | 5.5 |  |
| COCCOc1cc2c(cc1OC)[C@H]1C[C@@H](O)[C@H](CC(C)(C)C)CN1CC2 [Compound 4-26, (2R,3R,11bR)-3-(2,2-dimethylpropyl)-10-methoxy-9-(2-methoxyethoxy)-1H,2H,3H,4H,6H,7H,11bH-pyrido[2,1-a]isoquinolin-2-ol] | 14.2 | 88 | 58 | 8.32 | 14 |  |
| COc1cc2c(cc1OCCCF)CCN1C[C@@H](CC(C)(C)C)[C@H](O)C[C@H]21 [Compound 4-28, (2R,3R,11bR)-3-(2,2-dimethylpropyl)-9-(3-fluoropropoxy)-10-methoxy-1H,2H,3H,4H,6H,7H,11bH-pyrido[2,1-a]isoquinolin-2-ol] | 31.8 | 39 | 39 | 12.28 | 0.48 |  |
| COc1cc2c(cc1OCC1(C#N)CC1)CCN1C[C@@H](CC(C)(C)C)[C@H](O)C[C@H]21 [Compound 4-29, 1-({[(2R,3R,11bR)-3-(2,2-dimethylpropyl)-2-hydroxy-10-methoxy-1H,2H,3H,4H,6H,7H,11bH-pyrido[2,1-a]isoquinolin-9-yl]oxy}methyl)cyclopropane-1-carbonitrile] | ≤ 2.97 | ≥ 420 | ≥87 | ≤2.59 | 83 |  |
| COc1cc2c(cc1OC1COC1)CCN1C[C@@H](CC(C)(C)C)[C@H](O)C[C@H]21 [Compound 4-30, (2R,3R,11bR)-3-(2,2-dimethylpropyl)-10-methoxy-9-(oxetan-3-yloxy)-1H,2H,3H,4H,6H,7H,11bH-pyrido[2,1-a]isoquinolin-2-ol] | ≤ 2.97 | ≥ 420 | ≥87 | ≤2.59 | 12 |  |
| COc1cc2c(cc1OC1CCC1)CCN1C[C@@H](CC(C)(C)C)[C@H](O)C[C@H]21 [Compound 4-32, (2R,3R,11bR)-9-cyclobutoxy-3-(2,2-dimethylpropyl)-10-methoxy-1H,2H,3H,4H,6H,7H,11bH-pyrido[2,1-a]isoquinolin-2-ol] | 66.5 | 19 | 23 | 15.38 | 0.59 |  |
| COc1cc2c(cc1OCc1ncc(C)o1)CCN1C[C@@H](CC(C)(C)C)[C@H](O)C[C@H]21 [Compound 4-36, (2R,3R,11bR)-3-(2,2-dimethylpropyl)-10-methoxy-9-[(5-methyl-1,3-oxazol-2-yl)methoxy]-1H,2H,3H,4H,6H,7H,11bH-pyrido[2,1-a]isoquinolin-2-ol] | 13.4 | 93 | 60 | 8.02 | 51 |  |
| COc1cc2c(cc1OC(C)C)CCN1C[C@@H](CC(C)(C)C)[C@H](O)C[C@H]21 [Compound 4-38, (2R,3R,11bR)-3-(2,2-dimethylpropyl)-10-methoxy-9-(propan-2-yloxy)-1H,2H,3H,4H,6H,7H,11bH-pyrido[2,1-a]isoquinolin-2-ol] | 21.5 | 58 | 48 | 10.35 | 3.7 |  |
| [2H]C([2H])([2H])C([2H])([2H])Oc1cc2c(cc1OC)[C@H]1C[C@@H](O)[C@H](CC(C)(C)C)CN1CC2 [Compound 4-40, (2R,3R,11bR)-3-(2,2-dimethylpropyl)-9-(ethoxy-d5)-10-methoxy-1H,2H,3H,4H,6H,7H,11bH-pyrido[2,1-a]isoquinolin-2-ol] | 23.9 | 52 | 46 | 10.88 |  | 1.4 |
| COc1cc2c(cc1OCCOC1(C#N)CCOCC1)CCN1C[C@@H](CC(C)(C)C)[C@H](O)C[C@H]21 [Compound 4-41, 4-(2-{[(2R,3R,11bR)-3-(2,2-dimethylpropyl)-2-hydroxy-10-methoxy-1H,2H,3H,4H,6H,7H,11bH-pyrido[2,1-a]isoquinolin-9-yl]oxy}ethoxy)oxane-4-carbonitrile] | 45.2 | 28 | 31 | 13.87 | 238 |  |
| COc1cc2c(cc1OCC1(C#N)CCC1)CCN1C[C@@H](CC(C)(C)C)[C@H](O)C[C@H]21 [Compound 4-42, 1-({[(2R,3R,11bR)-3-(2,2-dimethylpropyl)-2-hydroxy-10-methoxy-1H,2H,3H,4H,6H,7H,11bH-pyrido[2,1-a]isoquinolin-9-yl]oxy}methyl)cyclobutane-1-carbonitrile] | 24.3 | 51 | 45 | 10.98 | 35 |  |
| COc1cc2c(cc1OCCOC(C#N)C1CC1)CCN1C[C@@H](CC(C)(C)C)[C@H](O)C[C@H]21 (stereo partly drawn) [Compound 4-43, 2-(2-{[(2R,3R,11bR)-3-(2,2-dimethylpropyl)-2-hydroxy-10-methoxy-1H,2H,3H,4H,6H,7H,11bH-pyrido[2,1-a]isoquinolin-9-yl]oxy}ethoxy)-2-cyclopropylacetonitrile] | 68.8 | 18 | 23 | 15.5 | 4.8 |  |
| COc1cc2c(cc1OCCOC(C)(C)C#N)CCN1C[C@@H](CC(C)(C)C)[C@H](O)C[C@H]21 [Compound 4-44, 2-(2-{[(2R,3R,11bR)-3-(2,2-dimethylpropyl)-2-hydroxy-10-methoxy-1H,2H,3H,4H,6H,7H,11bH-pyrido[2,1-a]isoquinolin-9-yl]oxy}ethoxy)-2-methylpropanenitrile] | 26.9 | 46 | 43 | 11.47 | 2.4 |  |
